{"source": "patent US10004225B2", "about": "“Wearable insect repelling patch” (S. C. Johnson & Son, Inc., priority 2005, dated 2018)", "tested_on": "mosquitoes", "test": "Three-chamber test apparatus, mosquito personal area repellency of hung patches with human test subject as attractant", "format": "in vivo", "details": "Example 1, 2 patches 103 cm^2, 60 mg each; for % Repellency: no adhesive", "description": "Various patch sizes and insect repellents were tested, initially using the test apparatus shown schematically generally at 20 in FIG. 3. The test apparatus 20 has a sample chamber 22, connected to a mosquito chamber 24, which is connected via an opening 34 to a remote chamber 26. Each chamber is generally cubical, with a volume of about 0.43 m^3.\nThe sample chamber 22 has an open end 28 on the side remote from the mosquito chamber 24. A screen 30 divides the sample chamber 22 from the mosquito chamber 24. The opening 34 between the mosquito chamber 24 and the remote chamber 26 is slightly constricted by side walls 32. However, the opening 34 is still sufficiently large that mosquitoes can freely move between the mosquito and remote chambers 24 and 26.\nFour, screened, low-flow exhaust ports 36 are located in the side walls 32, the exhaust ports facing the open end 28. Air is drawn through the exhaust ports 36 and exhausted from the mosquito chamber 24 at a rate sufficient to draw air in through the open end 28 but insufficient to affect the flying of mosquitoes placed in the mosquito chamber 24 or to disturb the air in the remote chamber 26.\nFor each test, a human test subject 38 is placed at the open end 28 of the sample chamber 22, the test subject's breath providing the warmth, CO2, and moisture known to be human attractants for mosquitoes. The exhaust ports 36 pull air, along with those attractants, though the open end 28 and on through the sample chamber 22, the screen 30, and the mosquito chamber 24. The attractants thus leave the apparatus 20 without entering the remote chamber 26.\nMosquitoes are placed in the mosquito chamber 24 and are quickly attracted to the screen 30 by the human attractants. The open end 28 is large enough to expose primarily the upper torso and head of the test subject. Two patches 10 are hung one foot into the sample chamber 22 and approximately 20 cm down from the chamber's top (except as was done otherwise in particular experiments, as is noted, below).\nPercent repellency was calculated as the percent of mosquitoes that had been initially introduced into the mosquito chamber 24 (most of which were attracted to the screen 30 before the patches 10 were put in place), that then were repelled from the screen when the patches were introduced. The “repellency” indicated in the table, below, for time zero reflects the mosquitoes that were not yet attracted to the screen 30 by the time the test patches 10 were introduced. […] The patches 10 used were 103 cm^2 in size, with no adhesive layer 18.\nThe patch material was a non-woven cloth material comprised of rayon, polyester, and polypropylene (as described in published U.S. Patent Application US20040082248), dosed with 60 mg of the active ingredient. The controls used no patches.\nThe same test apparatus 20 was used in the same way as described in Example 1, with the following changes. When a test included four patches 10, two were hung as in Example 1, and two were hung about 13 cm from the bottom of the chamber to simulate patches worn on the shoulders and at the waist of a user. In one test, as indicated in the table, below, the patches 10 were attached to the test subject's chest. Each individual patch was treated with the amount of insect repellent indicated. Time is shown in minutes."}
{"smiles": "CC=C[C@@H]1[C@@H](C(=O)OCc2c(F)c(F)c(COC)c(F)c2F)C1(C)C", "note": "(racemic) [metofluthrin, 2,3,5,6-tetrafluoro-4-methoxymethylbenzyl (EZ)-(1RS,3RS)-2,2-dimethyl-3-(prop-1-enyl)-cyclopropanecarboxylate]", "values": [{"measurement": "personal area repellency (result in words)", "result": "successful personal area repellency"}, {"measurement": "% Repellency", "setting": "5 min", "result": 72, "unit": "%"}, {"measurement": "% Repellency", "setting": "10 min", "result": 92, "unit": "%"}, {"measurement": "% Repellency", "setting": "15 min", "result": 96, "unit": "%"}, {"measurement": "% Repellency", "setting": "20 min", "result": 98, "unit": "%"}, {"measurement": "% Repellency", "setting": "time 0 min (mosquitoes not yet attracted to screen)", "result": 10, "unit": "%"}]}
